Article PMC6607443, “Systematic identification of recognition motifs for the hub protein LC8” (Life Science Alliance, 2019)
Where no end group is shown, it is not given here.

biological target: LC8 (UniProt P63167); assay: ITC of synthetic peptides binding to LC8; settings: Fig 3B; ITC, 25°C, 50 mM NaCl, 50 mM NaPO4, 1 mM NaN3, pH 7.5; single-site model; average of two to three independent experiments; read-out: Kd
Sequence (P63167 whole entry, the tested form may be a part): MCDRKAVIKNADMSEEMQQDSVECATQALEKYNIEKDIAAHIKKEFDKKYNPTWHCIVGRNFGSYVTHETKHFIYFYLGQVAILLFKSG

Q: Which Kd does the source give for “VAQGTQTP [BSN^III, synthesized to validate previous data]” here?
A: Its Kd is 5.3 µM.

Q: Which Kd does the source give for “RNSQTQTD [VP35(EBV), synthesized to validate previous data]” here?
A: The Kd was 0.8 µM.

Q: Which Kd does the source give for “ISRMTQTP [RAVL, synthesized to validate previous data]” here?
A: Its Kd is 8 µM.

same assay, conditions: ITC, 25°C, pH 7.5; single-site model; read-out: Kd

Q: For “KDGDTQTD [HTATSF1, peptide from HIV Tat-specific factor 1, UniProt O43719, predicted by LC8Pred]”, which Kd is on record?
A: Its Kd is 10 µM.

same assay, conditions: ITC, 25°C, pH 7.5; strong = Kd fit, weak = heat but not fit (>25 μM)

Q: Which “binding to LC8 via ITC (in words)” value does the source give for “KTLTFSGSSQTVTP [QSER1, synthetic peptide from QSER1, UniProt Q2KHR3]” here?
A: Its value is “nonbinders”.

Q: Which “binding to LC8 via ITC (in words)” value does the source give for STQTPSPAPASDMP [BSN-shift] here?
A: Its value is “failed to demonstrate even weak binding to LC8”.

Q: For “SSTEVQVE [OTOF, peptide from otoferlin, UniProt Q9HC10, predicted by LC8Pred]”, which “binding to LC8 via ITC (in words)” value is on record?
A: Its value is “bound to LC8”.

Q: For “SKTQQTFGSQTECT [TOGARAM1, synthetic peptide from TOGARAM1, UniProt Q9Y4F4]”, which “binding to LC8 via ITC (in words)” value is on record?
A: Its value is “weak binders”.

Q: For “KDGDTQTD [HTATSF1, peptide from HIV Tat-specific factor 1, UniProt O43719, predicted by LC8Pred]”, which “binding to LC8 via ITC (in words)” value is on record?
A: Its value is ““strong” binder”.

Q: Which “binding to LC8 via ITC (in words)” value does the source give for “RTSETNTP [NIN, peptide from ninein, UniProt Q8N4C6, predicted by LC8Pred]” here?
A: The value was “bound to LC8”.

same assay, conditions: Table 1, peptides synthesized from phage display hits; ITC, 25°C, 50 mM sodium phosphate, 50 mM NaCl, 1 mM sodium azide, 5 mM β-mercaptoethanol, pH 7.5; 500 μM peptide into 25 μM LC8

Q: Which “Binder?” value does the source give for “RGDGSDVSSQTPQT [ANKIB1, synthetic peptide from ANKIB1, UniProt Q9P2G1]” here?
A: Its value is “N”.

Q: Which “Binder?” value does the source give for “ITSYNSQGTQLTVE [KY, synthetic peptide from KY, UniProt Q8NBH2]” here?
A: The value was “N”.

Q: For “TEAKDQCSTQTDFN [EPAS1, synthetic peptide from EPAS1, UniProt Q99814]”, which “Binder?” value is on record?
A: Its value is “N”.

Q: With TQDDYFKDKRVHHFRRS [DAZL] as the sequence, how does the “Binder?” value read?
A: Its value is “N”.

Q: Which “Binder?” value does the source give for “CLKETLQITQTEVQ [NFYC, synthetic peptide from NFYC, UniProt Q13952]” here?
A: The value was “N”.

Q: Which “Binder?” value does the source give for “KITFTKPSTQTTNT [EMSY, synthetic peptide from EMSY, UniProt Q7Z589]” here?
A: The value was “N”.

Q: Which “Binder?” value does the source give for “AASLIQKMLQTDPTAR [PLK1, synthetic peptide from PLK1, UniProt P53350]” here?
A: The value was “N”.

Q: For “SFRHPGYSTQTHVN [KLK7, synthetic peptide from KLK7, UniProt P49862]”, which “Binder?” value is on record?
A: Its value is “N”.

Q: With “AKESCNMETQTSST [OFD1, synthetic peptide from OFD1, UniProt O75665]” as the sequence, how does the “Binder?” value read?
A: Its value is “Y”.

Q: Which “Binder?” value does the source give for “SSRSAFSPLQPNAS [DMRTA2, synthetic peptide from DMRTA2, UniProt Q96SC8]” here?
A: Its value is “N”.

Q: Which “Binder?” value does the source give for “RAAALPEETRSSRR [ZNF469, synthetic peptide from ZNF469, UniProt Q96JG9]” here?
A: The value was “N”.

Q: Which “Binder?” value does the source give for “KTLTFSGSSQTVTP [QSER1, synthetic peptide from QSER1, UniProt Q2KHR3]” here?
A: Its value is “N”.

Q: Which “Binder?” value does the source give for DDNHWTRSTQTTRE [MUC4] here?
A: Its value is “Y”.

Q: With “SPSPTGLPTQTPGF [ARAP3, synthetic peptide from ARAP3, UniProt Q8WWN8]” as the sequence, how does the “Binder?” value read?
A: Its value is “Weak^a (Weak binders are those with affinities >25 μM)”.

Q: For “PLQATISKSQTNPV [UBN2, synthetic peptide from UBN2, UniProt Q6ZU65]”, which “Binder?” value is on record?
A: Its value is “N”.

Q: Which “Binder?” value does the source give for “TPTPTPTGTQTPTT [MUC2, synthetic peptide from MUC2, UniProt Q02817]” here?
A: The value was “N”.

Q: For “KHSGRQLTLQHHMG [CUL3, synthetic peptide from CUL3, UniProt Q13618]”, which “Binder?” value is on record?
A: The value was “N”.

Q: Which “Binder?” value does the source give for “DDHSGNAQVTQTKFD [DDX1, synthetic peptide from DDX1, UniProt Q92499]” here?
A: The value was “N”.

Q: For “LPRKVDTAAQTNSR [IRS1, synthetic peptide from IRS1, UniProt P35568]”, which “Binder?” value is on record?
A: The value was “N”.

Q: With “NQSFLRTPIQRTPH [SAV1, synthetic peptide from SAV1, UniProt Q9H4B6]” as the sequence, how does the “Binder?” value read?
A: Its value is “N”.

Q: For “DERLMCTGSQTFDD [EFL1, synthetic peptide from EFL1, UniProt Q7Z2Z2]”, which “Binder?” value is on record?
A: The value was “N”.

Q: Which “Binder?” value does the source give for “TLVSTASGTQTVFP [SH3RF2, synthetic peptide from SH3RF2, UniProt Q8TEC5]” here?
A: The value was “N”.

Q: For STQTPSPAPASDMP [BSN-shift], which “Binder?” value is on record?
A: The value was “N”.

Q: With “RSFVLPVESTQDVSSQ [CRYBG1, synthetic peptide from CRYBG1, UniProt Q9Y4K1]” as the sequence, how does the “Binder?” value read?
A: The value was “N”.

Q: With “EGYRGTANTTTAAYLA [MSTL1, synthetic peptide from MSTL1, UniProt Q2TV78]” as the sequence, how does the “Binder?” value read?
A: Its value is “N”.

Q: With “ESGDGNTGTQTNGL [POU2F1, synthetic peptide from POU2F1, UniProt P14859]” as the sequence, how does the “Binder?” value read?
A: The value was “N”.

Q: With “TLQQPLELTASQLPAG [OTOG, synthetic peptide from OTOG, UniProt Q6ZRI0]” as the sequence, how does the “Binder?” value read?
A: Its value is “N”.

Q: For “DDPMYSSQTQTYGD [KCNQ2, synthetic peptide from KCNQ2, UniProt O43526]”, which “Binder?” value is on record?
A: Its value is “N”.

Q: Which “Binder?” value does the source give for “SKTQQTFGSQTECT [TOGARAM1, synthetic peptide from TOGARAM1, UniProt Q9Y4F4]” here?
A: Its value is “Weak^a (Weak binders are those with affinities >25 μM)”.

Q: For “DDSGGNATTQTTSD [ROR1, synthetic peptide from ROR1, UniProt Q01973]”, which “Binder?” value is on record?
A: Its value is “Weak^a (Weak binders are those with affinities >25 μM)”.

Q: With “GQGAALTTATQTTHLE [GP1BA, synthetic peptide from GP1BA, UniProt P07359]” as the sequence, how does the “Binder?” value read?
A: Its value is “Weak^a (Weak binders are those with affinities >25 μM)”.

Q: For “LQETLTTSSQANLS [PPP2R3A, synthetic peptide from PPP2R3A, UniProt Q06190]”, which “Binder?” value is on record?
A: The value was “N”.

Q: With “TTLPVLTSTATKST [MUC5B-1, synthetic peptide from MUC5B, UniProt Q9HC84, residues 3,049-3,062]” as the sequence, how does the “Binder?” value read?
A: The value was “N”.

Q: For “SMATPSSSTQTSGT [MUC5B-3, synthetic peptide from MUC5B, UniProt Q9HC84, residues 2,673-2,686]”, which “Binder?” value is on record?
A: The value was “N”.

same assay, conditions: Table 2, peptides synthesized from favorable sequence comparisons (PSSM); ITC, 25°C, pH 7.5; 500 μM peptide into 25 μM LC8

Q: Which “Binder?” value does the source give for “AQPKQKLDTSIQTEYP [MT/HEL (TMV), synthetic peptide from MT/HEL (TMV), UniProt P03586]” here?
A: Its value is “N”.

Q: For “MDDIFTQCREGN [ILK, synthetic peptide from ILK, UniProt Q13418]”, which “Binder?” value is on record?
A: Its value is “N”.

Q: Which “Binder?” value does the source give for TQDDYFKDKRVHHFRRS [DAZL] here?
A: The value was “N”.

Q: For “YELMASLDQPTQTVVM [EIF3C, synthetic peptide from EIF3C, UniProt Q99613]”, which “Binder?” value is on record?
A: The value was “N”.

Q: For “YKIEIPTQCPSCGSK [DNLJ2 (phage T5), synthetic peptide from DNLJ2 (phage T5), UniProt Q5DMI6]”, which “Binder?” value is on record?
A: Its value is “N”.

Q: For “KPFMLDEEGDTQTEET [EIF2S2, synthetic peptide from EIF2S2, UniProt P20042]”, which “Binder?” value is on record?
A: Its value is “N”.

Q: For “YGPDGEETETQTCPP [PRSS36, synthetic peptide from PRSS36, UniProt Q5K4E3]”, which “Binder?” value is on record?
A: The value was “N”.

Q: Which “Binder?” value does the source give for “YHHRILEAKSIQTSPT [FMN2, synthetic peptide from FMN2, UniProt Q9NZ56]” here?
A: Its value is “N”.

Q: With “YGQIAPENGTQTPSP [ITGAX, synthetic peptide from ITGAX, UniProt P20702]” as the sequence, how does the “Binder?” value read?
A: The value was “N”.

Q: For “NKVFAKLHHNTQTFQA [CCL25, synthetic peptide from CCL25, UniProt O15444]”, which “Binder?” value is on record?
A: Its value is “N”.

Q: With “KSVAENGDTDTQTSMF [ZZZ3, synthetic peptide from ZZZ3, UniProt Q8IYH5]” as the sequence, how does the “Binder?” value read?
A: Its value is “N”.

Q: For “DFTPAFADFGRQTPGG [EIF4G3, synthetic peptide from EIF4G3, UniProt O43432]”, which “Binder?” value is on record?
A: Its value is “N”.

same assay, conditions: pH 7.5

Q: With PRATAEFSTQTPSP [BSN^II] as the sequence, how does the Kd read?
A: The Kd was 3.8 µM.

biological target: LC8 (UniProt P63167); assay: not given; settings: rotavirus A VP4 residues 644–651; ref Martínez-Moreno et al, 2003; cited from earlier work
Description: We scanned Homo sapiens and viral proteomes for potential LC8-binding sequences based upon: (1) their propensity for disorder, (2) their sequence conservation across related species, and (3) the sequence’s similarity to known motifs. This final parameter used a PSSM based on the relative enrichment or depletion of each residue in a potential sequence, weighted by amino acid frequency. Enrichment and depletion PSSMs were populated using sequences that interact with LC8, verified either by mutagenesis or in vitro assays. ITC experiments were performed on 19 synthetic peptides with high-scoring s ...

Q: With “IDMSTQIG [rotavirus A VP4 residue position 644–651, site predicted and tested in a previous study]” as the sequence, how does the “binding to LC8 (in words)” value read?
A: The value was “did not bind LC8”.
